Measured values taken from the NIST ThermoML archive (doi:10.1016/j.fluid.2016.06.019).
± gives the expanded uncertainty stated by the source.

Key:
[1] = wn = mass fraction of the nth substance listed; conditions: 298.15 K, 100 kPa, Liquid, Vibrating tube method
[2] = refractive index (Na D-line) (dimensionless); wn = mass fraction of the nth substance listed; conditions: 298.15 K, 100 kPa, Liquid, Standard Abbe refractometry
[3] = refractive index (Na D-line) (dimensionless); conditions: 298.15 K; 100 kPa; Liquid; Standard Abbe refractometry

N.N.O=S(=O)(O)O [ammonium sulfate] + O
Conditions | mass density, [1] [kg/m3] | refractive index, [2]
w1 = 0.0005 | 997.4 ± 0.2 | 1.33259 ± 0.00031
w1 = 0.0011 | 997.7 ± 0.2 | 1.33268 ± 0.00031
w1 = 0.0053 | 1000.3 ± 0.2 | 1.33337 ± 0.00031
w1 = 0.0104 | 1003.3 ± 0.2 | 1.33425 ± 0.00031
w1 = 0.0208 | 1009.4 ± 0.2 | 1.33594 ± 0.00031
w1 = 0.0412 | 1021.2 ± 0.2 | 1.33921 ± 0.00032
w1 = 0.0712 | 1038.4 ± 0.2 | 1.34393 ± 0.00032
w1 = 0.1007 | 1055.3 ± 0.2 | 1.34856 ± 0.00032

O=S(=O)([O-])[O-].[Na+].[Na+] [sodium sulfate] + O
Conditions | mass density, [1] [kg/m3] | refractive index, [2]
w1 = 0.0005 | 997.6 ± 0.3 | 1.33258 ± 0.00031
w1 = 0.0011 | 998.1 ± 0.3 | 1.33266 ± 0.00031
w1 = 0.0053 | 1002 ± 0.3 | 1.33331 ± 0.00031
w1 = 0.0108 | 1006.9 ± 0.3 | 1.33414 ± 0.00031
w1 = 0.0214 | 1016.5 ± 0.3 | 1.3357 ± 0.00031
w1 = 0.042 | 1035.1 ± 0.3 | 1.33875 ± 0.00031
w1 = 0.0719 | 1062.6 ± 0.3 | 1.34307 ± 0.00032
w1 = 0.0994 | 1088.5 ± 0.3 | 1.34535 ± 0.00032

O [water]
Conditions | refractive index
[3] | 1.3325 ± 0.00031

O [water] + N.N.O=S(=O)(O)O
Conditions | refractive index
[2], w2 = 0 | 1.3325 ± 0.00031

O [water] + O=S(=O)([O-])[O-].[Na+].[Na+]
Conditions | refractive index
[2], w2 = 0 | 1.3325 ± 0.00031
